This passage reports IC50 results from BindingDB's records for doi:10.1021/jm040190e (National Institute On Drug Abuse-Intramural Research Program, 2005).

The assay in a line: Mitogenic stimulation or antagonism of 30 nM quinpirole-stimulated mitogenesis in CHO cells expressing human dopamine D3 receptor.
The term IC50 denotes the midpoint of a concentration-inhibition curve. A higher IC50 goes with a need for much substance. For the compound `O=C(NC/C=C/CN1CCN(c2cccc(Cl)c2Cl)CC1)c1ccc(I)cc1` [N-{4-[4-(2,3-Dichloro-phenyl)-piperazin-1-yl]-but-2-enyl}-4-iodo-benzamide], half-maximal inhibition (IC50) was put at 24.1 nM.

As for `O=C(NC/C=C/CN1CCN(c2cccc(Cl)c2Cl)CC1)c1ccc([N+](=O)[O-])cc1` [N-{(E)-4-[4-(2,3-Dichloro-phenyl)-piperazin-1-yl]-but-2-enyl}-4-nitro-benzamide], it took 2.2 nM to reach half-maximal inhibition (IC50).

In turn, `O=C(NC/C=C/CN1CCN(c2cccc(Cl)c2Cl)CC1)c1ccc2c(c1)Cc1ccccc1-2` [N-(4-(4-(2,3-dichlorophenyl)piperazin-1-yl)but-2-enyl)-9H-fluorene-2-carboxamide] returned an IC50 of 173 nM.

`O=C(NC/C=C/CN1CCN(c2cccc(Cl)c2Cl)CC1)c1ccc(O)cc1` [N-{4-[4-(2,3-Dichloro-phenyl)-piperazin-1-yl]-but-2-enyl}-4-hydroxy-benzamide] showed an IC50 of 1 nM.

Consider `O=C(NCCCCN1CCN(c2cccc(Cl)c2Cl)CC1)c1ccc(-c2ccccn2)cc1` [N-{4-[4-(2,3-Dichloro-phenyl)-piperazin-1-yl]-butyl}-4-pyridin-2-yl-benzamide], for which the 50% inhibitory concentration (IC50) came out at 6.31 nM.

Compound `COc1ccc(C(=O)NC/C=C/CN2CCN(c3cccc(Cl)c3Cl)CC2)cc1` [N-{4-[4-(2,3-Dichloro-phenyl)-piperazin-1-yl]-but-2-enyl}-4-methoxy-benzamide] had a 50% inhibitory concentration (IC50) of 4.79 nM.
